The IC50 is the midpoint of a concentration-inhibition curve. A low value points to greater potency in that assay.

Experimental findings from PMC3648619 (Journal of inorganic biochemistry, 2013) are described below.

The target of the experiment is T1, 20S proteasome, β5 subunit (chymotrypsin-like activity) (Homo sapiens, UniProt P28074).
T1 sequence (P28074 60-263): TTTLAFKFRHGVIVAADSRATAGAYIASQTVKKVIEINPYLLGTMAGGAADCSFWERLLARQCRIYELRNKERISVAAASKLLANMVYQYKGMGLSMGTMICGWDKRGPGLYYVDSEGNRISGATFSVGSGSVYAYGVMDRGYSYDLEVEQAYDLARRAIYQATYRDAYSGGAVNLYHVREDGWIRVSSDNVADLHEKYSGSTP
It is filed as biochemical.
Regarding [Cd(C7H4N2O2)(C8H6O2)2]·2H2O [Cd3], the IC50 amounted to 3300 nM. Under [Cd2(C12H12O2N)4(H2O)2]·2H2O [Cd1] stands 2600 nM.

The substance [Cd2(C11H10O2N)4(H2O)2]·2H2O displayed an IC50 of 3000 nM.
